Columns and labels:
Assay type in all cases: functional
Mus musculus [1] = assay: In vivo antitumor activity against P-388 leukemia in CDF1 mice at 64 mg or 186 umol by ip administration expressed as average wt. change determined between day 0 and day 6 of experiment
Mus musculus [2] = assay: In vivo antitumor activity against P-388 leukemia in CDF1 mice at 256 mg or 746 umol by ip administration expressed as median survival time of drug treated mice/median survival time of control mice x100
Mus musculus [3] = assay: In vivo antitumor activity against P-388 leukemia in CDF1 mice at 32 mg or 93 umol by ip administration expressed as median survival time of drug treated mice/median survival time of control mice x100
Mus musculus [4] = assay: In vivo antitumor activity against P-388 leukemia in CDF1 mice at 64 mg or 186 umol by ip administration expressed as median survival time of drug treated mice/median survival time of control mice x100
Mus musculus [5] = assay: In vivo antitumor activity against P-388 leukemia in CDF1 mice at 128 mg or 373 umol by ip administration expressed as median survival time of drug treated mice/median survival time of control mice x100
Mus musculus [6] = assay: In vivo antitumor activity against P-388 leukemia in CDF1 mice at 16 mg or 47 umol by ip administration expressed as average wt. change determined between day 0 and day 6 of experiment
Mus musculus [7] = assay: In vivo antitumor activity against P-388 leukemia in CDF1 mice at 16 mg or 47 umol by ip administration expressed as median survival time of drug treated mice/median survival time of control mice x100
Mus musculus [8] = assay: In vivo antitumor activity against P-388 leukemia in CDF1 mice at 8 mg or 23 umol by ip administration expressed as median survival time of drug treated mice/median survival time of control mice x100
Mus musculus [9] = assay: In vivo antitumor activity against P-388 leukemia in CDF1 mice at 256 mg or 746 umol by ip administration expressed as average wt. change determined between day 0 and day 6 of experiment
Mus musculus [10] = assay: In vivo antitumor activity against P-388 leukemia in CDF1 mice at 128 mg or 373 umol by ip administration expressed as average wt. change determined between day 0 and day 6 of experiment
Mus musculus [11] = assay: In vivo antitumor activity against P-388 leukemia in CDF1 mice at 8 mg or 23 umol by ip administration expressed as average wt. change determined between day 0 and day 6 of experiment
Mus musculus [12] = assay: In vivo antitumor activity against P-388 leukemia in CDF1 mice at 32 mg or 93 umol by ip administration expressed as average wt. change determined between day 0 and day 6 of experiment

Which Average weight change (Mus musculus [1]) does the source give for `CC1(C)CN1P(=O)(OCCn1ccnc1[N+](=O)[O-])N1CC1(C)C` (configuration not stated) here?
The Average weight change was -1.1 g.

And the T/C (Mus musculus [2])?
The T/C was 228%.

What about the T/C (Mus musculus [3]) of the same compound?
The T/C was 111%.

What about the T/C (Mus musculus [4]) of the same compound?
Its T/C is 150%.

And the T/C (Mus musculus [5])?
The T/C was 189%.

And the Average weight change (Mus musculus [6])?
The Average weight change was 0.1 g.

What about the T/C (Mus musculus [7]) of the same compound?
The T/C was 122%.

And the T/C (Mus musculus [8])?
The T/C was 106%.

What about the Average weight change (Mus musculus [9]) of the same compound?
The Average weight change was -2.8 g.

And the Average weight change (Mus musculus [10])?
The Average weight change was -1.3 g.

And the Average weight change (Mus musculus [11])?
Its Average weight change is 0.2 g.

And the Average weight change (Mus musculus [12])?
The Average weight change was -0.9 g.
